Measured values published in patent publication US9346797B1, “2-amino 6-(difluoromethyl)-5,5-difluoro-6-phenyl-3,4,5,6-tetrahydropyridines as BACE1 inhibitors” (H. Lundbeck A/S, priority 2014, dated 2016).
Read-outs that look alike come from different tables or passages of the source.

What was measured:
[1] = Bioanalysis of brain and plasma samples (exposure, UPLC-MS/MS); assay type: in vivo; settings: male, Sprague Dawley, po, rat, 3 hours post dose; for Kp at 3 h: brain/plasma, read-out: Brain/Plasma ratio; for concentration at 3 h: read-out: Exp
Protocol: Young adult Male Sprague Dawley rats of approximately 250 g weight were purchased from Charles River and received 0-30 mg/kg of vehicle (10% HP betaCD+1M MeSO4, pH 2.5) or test compounds (dissolved in vehicle) only by oral gavage (p.o). The compounds are dosed at a volume of 5 ml/kg. Cohorts of 5-10 animals were established for each treatment condition.
At T=180 minutes after initial dosing the animals were stunned and decapitated with a guillotine. Trunk-blood was sampled in EDTA coated tubes after decapitation of the animal. The blood was centrifuged at 2200 G at 4° C. for 15 minutes and the plasma was collected and frozen at −80° C. The blood was aliquoted for Aβ ELISA and DMPK analysis Immediately following sacrifice, the brain was extracted and split into 2 halves. The right hemibrains were snap frozen on dry ice and stored at −80° C. The left half was dissected; with the front forebrain taken for Aβ ELISA and the remainder used for DMPK analysis. These samples were also snap frozen on dry ice and stored at −80° C. until use for analysis.
TC was determined in plasma and brain homogenate using UltraPerformance LC® (UPLC®) chromatography followed by tandem-MS (MS/MS) detection.
Brain homogenate was prepared by homogenizing the brain 1:4 (v/v) with water:2-propanol:DMSO (50:30:20 v/v/v) followed by centrifugation and collection of the supernatant. Calibration standards and QC samples were prepared using a Hamilton robot. 150 μL of ISTD in acetonitrile (1 ng/mL ISTD) was added to 25 μL of calibration standards, QC samples and test samples (plasma and brain homogenate) using a Biomek robot. After centrifugation (6200 g, 4° C., 20 min) 100 μL supernatant from each sample was transferred to a new plate and mixed with 100 μL water with 0.1% formic acid using a Biomek robot (method file InVivo transfer). After a quick centrifugation (6200 g, 4° C., 5 min) the samples were placed in the auto-sampler.
MS/MS detection was done with an Applied Biosystems Sciex API 4000 instrument in positive-ion electrospray ionisation mode. TC and ISTD were detected at a parent>daughter mass to charge ratio (m/z). Nitrogen was used for the nebulizer and collision gases. The peak area correlated linearly with the plasma and brain concentration of the analytes in the range of 1.00-1000 ng/mL plasma and 5.00-5000 ng/g brain (corrected for dilution). If the plasma/brain sample drug concentration was above 1000 ng/mL or 5000 ng/g, the sample was diluted appropriately in blank plasma/blank brain homogenate before analysis. […]

[2] = molecular target: human BACE1 (Homo sapiens (Human), UniProt P56817); assay: BACE1 binding assay (SPA-based radioligand binding); settings: pH 4.5, Ki calculated from IC50
Protocol: The binding assay was performed as SPA-based assay using a biotinylated form of human BACE1 recombinantly expressed and subsequently purified from Freestyle HEK293 cells. The binding assay was run in a 50 mM sodium acetate buffer, pH 4.5 containing 50 mM NaCl and 0.03% Tween-20 in white clear bottom 384 plates (Corning #3653). 10 nM (final concentration) radioligand ([^3H]—N-((1S,2R)-1-benzyl-3-cyclopropylamino-2-hydroxy-propyl)-5-(methanesulfonyl-methyl-amino)-N—((R)-1-phenyl-ethyl)-isophthalamide) (TRQ11569 purchased from GE Healthcare) was mixed with test compound at a given concentration, 6 nM (final concentration) human BACE1 and 25 μg Streptavidin coated PVT core SPA beads (RPNQ0007, GE Healthcare Life Sciences) in a total volume of 40 μl. Several concentrations of each test compound were tested in the assay for IC50 determination. The plates were incubated for one hour at room temperature and counted in a Wallac Trilux counter. Total and non-specific binding were determined using buffer and 1 μM (final concentration) of the high affinity BACE1 reference inhibitor (S)-6-[3-chloro-5-(5-prop-1-ynyl-pyridin-3-yl)-thiophen-2-yl]-2-imino-3,6-dimethyl-tetrahydro-pyrimidin-4-one, respectively. For each test compound, a IC50 value (the concentration mediating 50% inhibition of the specific binding of the radioligand) was determined from concentration-response curve and used to calculate the Ki from the equation Ki=IC50/(1+L/Kd), where L and Kd are the final concentration of the radioligand used in the assay and the dissociation constant of the radioligand, respectively. The Kd of the radioligand was determined from saturation binding experiments.

human BACE1, sequence (P56817 46-501): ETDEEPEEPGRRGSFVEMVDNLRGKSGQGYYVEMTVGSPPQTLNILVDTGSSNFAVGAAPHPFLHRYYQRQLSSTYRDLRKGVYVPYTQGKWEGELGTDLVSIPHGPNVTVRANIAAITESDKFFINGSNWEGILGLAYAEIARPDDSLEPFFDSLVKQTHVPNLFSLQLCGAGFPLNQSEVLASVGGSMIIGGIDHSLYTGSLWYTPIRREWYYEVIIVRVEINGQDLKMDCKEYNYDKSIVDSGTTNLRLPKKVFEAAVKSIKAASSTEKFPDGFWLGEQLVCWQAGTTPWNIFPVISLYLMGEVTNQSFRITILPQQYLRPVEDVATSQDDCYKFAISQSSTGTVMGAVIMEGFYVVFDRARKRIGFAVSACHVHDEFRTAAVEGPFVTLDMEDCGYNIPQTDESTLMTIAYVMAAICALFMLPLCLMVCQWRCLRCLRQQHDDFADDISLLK

| Kp at 3 h ([1]; 10 mg/kg p.o.) | Kp at 3 h ([1]; 30 mg/kg p.o.) | concentration at 3 h ([1]; brain, 10 mg/kg p.o.) [ng/g] | concentration at 3 h ([1]; brain, 30 mg/kg p.o.) [ng/g] | concentration at 3 h ([1]; plasma, 10 mg/kg p.o.) [ng/g] | concentration at 3 h ([1]; plasma, 30 mg/kg p.o.) [ng/g] | Ki [2] [nM] | Compound |
| --- | --- | --- | --- | --- | --- | --- | --- |
| 0.3 | 0.32 | 511 | 2280 | 1680 | 7060 | 8.5 | COc1cnc(C(=O)Nc2ccc(F)c([C@@]3(C(F)F)N=C(N)CCC3(F)F)c2)cn1 [Compound 3, (S)—N-(3-(6-amino-2-(difluoromethyl)-3,3-difluoro-2,3,4,5-tetrahydropyridin-2-yl)-4-fluorophenyl)-5-methoxypyrazine-2-carboxamide] |
| 0.28 | 0.29 | 187 | 959 | 660 | 3350 | 6.7 | COc1ccc(C(=O)Nc2ccc(F)c([C@@]3(C(F)F)N=C(N)CCC3(F)F)c2)nc1 [Compound 5, (S)—N-(3-(6-amino-2-(difluoromethyl)-3,3-difluoro-2,3,4,5-tetrahydropyridin-2-yl)-4-fluorophenyl)-5-methoxypicolinamide] |
